Experiments:
hTLR8 = biological target: T1, hTLR8 (Homo sapiens, UniProt Q9NR97); assay: Human TLR8 Reporter Assay; format: cell-based; settings: HEK-Blue hTLR8 cells, 16 hours, normalized to tl8-506 (1 μM) and DMSO
T1 construct: host or cells: HEK-Blue hTLR8 cells (HEK293-derived, own knowledge)
T1 sequence (Q9NR97 27-1041): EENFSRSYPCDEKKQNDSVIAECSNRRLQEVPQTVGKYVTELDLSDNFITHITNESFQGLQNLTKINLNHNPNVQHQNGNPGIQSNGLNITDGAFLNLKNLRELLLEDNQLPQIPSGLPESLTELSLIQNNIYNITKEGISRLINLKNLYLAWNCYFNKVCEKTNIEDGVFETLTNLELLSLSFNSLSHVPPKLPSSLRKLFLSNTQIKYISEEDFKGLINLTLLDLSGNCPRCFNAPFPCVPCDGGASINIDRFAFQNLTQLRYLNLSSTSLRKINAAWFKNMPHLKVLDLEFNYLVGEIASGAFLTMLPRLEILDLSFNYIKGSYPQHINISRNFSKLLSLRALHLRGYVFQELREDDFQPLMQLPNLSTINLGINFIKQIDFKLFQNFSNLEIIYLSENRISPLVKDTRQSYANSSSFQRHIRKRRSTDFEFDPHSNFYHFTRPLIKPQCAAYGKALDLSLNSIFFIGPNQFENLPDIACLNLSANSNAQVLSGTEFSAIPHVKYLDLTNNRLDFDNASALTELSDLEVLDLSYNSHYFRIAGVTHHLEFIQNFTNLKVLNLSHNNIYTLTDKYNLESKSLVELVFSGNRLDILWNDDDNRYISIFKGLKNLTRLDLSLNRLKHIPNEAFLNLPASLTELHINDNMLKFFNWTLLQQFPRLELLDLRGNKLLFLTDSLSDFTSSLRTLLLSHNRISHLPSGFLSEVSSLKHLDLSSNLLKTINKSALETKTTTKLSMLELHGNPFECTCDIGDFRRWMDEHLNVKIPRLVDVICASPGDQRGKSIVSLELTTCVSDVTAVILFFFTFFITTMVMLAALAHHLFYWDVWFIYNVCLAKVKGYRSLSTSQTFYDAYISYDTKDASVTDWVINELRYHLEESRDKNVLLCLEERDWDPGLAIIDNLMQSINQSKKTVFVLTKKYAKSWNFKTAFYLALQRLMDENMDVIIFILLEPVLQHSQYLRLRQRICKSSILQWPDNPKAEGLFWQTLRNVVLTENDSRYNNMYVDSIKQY
Procedure: (§1) HEK-Blue™ hTLR8 cells (Invivogen, San Diego, Calif.) were maintained at 37° C./5% CO2/90% relative humidity in Dulbecco's Modified Eagle's Medium with 10% fetal bovine serum, 100 units/mL penicillin, 100 μg/mL streptomycin, 100 μg/mL normocin, 10 μg/mL blasticidin, and 100 μg/mL zeocin. HEK-Blue™ hTLR8 cells were maintained at 10-90% confluence and used before passage 20. For this assay, test compounds were dissolved in DMSO, and 10-point serial 3-fold dilution series in DMSO were prepared in Echo Qualified 384-well Polypropylene Microplates (Labcyte, San Jose, Calif.). Assay plates (384-well flat, clear bottom, black polystyrene TC-treated microtiter plates; Corning, Corning, N.Y.) were prepared by dispensing 150 nL of test compounds, high control (tl8-506; Invivogen, San Diego, Calif.), and low control (DMSO) by ECHO acoustic dispenser (Labcyte, San Jose Calif.) followed by addition of 5 μL of HEK-Blue™ Detection assay media (Invivogen, San Diego, Calif.). HEK-Blue™ hTLR8 cells in HEK-Blue™ Detection assay media (20,000 cells per well in 45 μL of media) were added to the assay plate and incubated for 16 hours at 37° C./5% CO2/90% relative humidity. For detection, assay plates were removed from the incubator, allowed to cool to ambient temperature, centrifuged at 200×g for 1 minutes, and read with an EnSpire Multimode Plate Reader (Perkin Elmer, Waltham, Mass.) for absorbance at 620 nm. Test compound effects were normalized to the window defined by the controls, tl8-506 (1 μM), and DMSO. Calculated % effects were fit using a 4-parameter algorithm, and EC50 was reported.

hTLR7 = biological target: T2, hTLR7 (Homo sapiens, UniProt Q9NYK1); assay: Human TLR7 Reporter Assay; format: cell-based; settings: HEK-Blue hTLR7 cells, 16 hours, normalized to CL097 (6 μM) and DMSO
T2 construct: host or cells: HEK-Blue hTLR7 cells (HEK293-derived, own knowledge)
T2 sequence (Q9NYK1 27-1049): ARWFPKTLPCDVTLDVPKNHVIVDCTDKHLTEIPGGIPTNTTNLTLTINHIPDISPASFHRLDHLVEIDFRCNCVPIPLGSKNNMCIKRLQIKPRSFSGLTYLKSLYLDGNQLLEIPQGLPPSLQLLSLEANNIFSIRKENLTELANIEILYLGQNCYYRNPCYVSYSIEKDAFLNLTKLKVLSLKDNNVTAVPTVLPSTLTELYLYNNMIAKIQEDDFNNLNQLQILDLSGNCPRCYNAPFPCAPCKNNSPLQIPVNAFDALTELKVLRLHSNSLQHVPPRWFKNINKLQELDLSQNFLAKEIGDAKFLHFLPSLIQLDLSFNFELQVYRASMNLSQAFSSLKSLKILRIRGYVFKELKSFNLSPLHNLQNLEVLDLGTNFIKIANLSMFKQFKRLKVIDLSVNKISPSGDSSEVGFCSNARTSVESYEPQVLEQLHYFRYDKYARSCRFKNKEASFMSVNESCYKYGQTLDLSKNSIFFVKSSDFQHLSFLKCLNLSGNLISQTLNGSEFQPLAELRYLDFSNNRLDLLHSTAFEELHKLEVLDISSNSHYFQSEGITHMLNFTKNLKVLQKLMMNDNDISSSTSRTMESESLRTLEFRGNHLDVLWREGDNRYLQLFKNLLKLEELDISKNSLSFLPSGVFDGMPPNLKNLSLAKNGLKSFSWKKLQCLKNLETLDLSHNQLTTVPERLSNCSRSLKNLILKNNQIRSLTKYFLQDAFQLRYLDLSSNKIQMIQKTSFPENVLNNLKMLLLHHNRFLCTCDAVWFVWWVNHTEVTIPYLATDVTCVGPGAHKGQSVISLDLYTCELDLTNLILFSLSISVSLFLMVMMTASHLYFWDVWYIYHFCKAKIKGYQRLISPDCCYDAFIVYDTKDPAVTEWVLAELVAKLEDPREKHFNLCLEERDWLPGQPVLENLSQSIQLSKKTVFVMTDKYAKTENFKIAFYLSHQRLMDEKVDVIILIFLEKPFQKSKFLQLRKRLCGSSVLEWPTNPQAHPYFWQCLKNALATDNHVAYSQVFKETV
Procedure: as §1, with “hTLR7” for “hTLR8”, “(CL097;” for “(tl8-506;”, “CL097 (6” for “tl8-506 (1”

For `CCCCNc1nc(N)nc2cn(Cc3ccccc3OC)nc12` [Compound 1], the EC50 (hTLR8) was 4900 nM and the EC50 (hTLR7) was 665 nM.
Molecule `CCCCNc1nc(N)nc2cn(Cc3ccccc3)nc12` [Compound 2] has an EC50 (hTLR8) of 4210 nM and an EC50 (hTLR7) of 1090 nM.
With `CCCCNc1nc(N)nc2cn(Cc3ccccc3C)nc12` [Compound 3] the EC50 (hTLR8) was greater than 29900 nM and the EC50 (hTLR7) was 1220 nM.
`CCCCNc1nc(N)nc2cn(Cc3ccccc3Cl)nc12` [Compound 4] gave an EC50 (hTLR8) of 6540 nM and an EC50 (hTLR7) of 578 nM.
Work on `CCCCNc1nc(N)nc2cn(Cc3c(OC)cccc3OC)nc12` [Compound 5] yielded an EC50 (hTLR8) of 328 nM and an EC50 (hTLR7) of 72.7 nM.
With `CCCCNc1nc(N)nc2cn(CC3CCCCC3)nc12` [Compound 7] the EC50 (hTLR8) was greater than 29900 nM and the EC50 (hTLR7) was 2520 nM.
In the case of `CCCCNc1nc(N)nc2cn(Cc3ncccc3OC)nc12` [Compound 8], the EC50 (hTLR8) is reported as 546 nM and the EC50 (hTLR7) is reported as 50.9 nM.
`CCCCNc1nc(N)nc2cn(CCCCCCCCN)nc12` [Compound 13] was tested, and the EC50 (hTLR8) was 26100 nM and the EC50 (hTLR7) was 3040 nM.
For `CCCCC(CCO)Nc1nc(N)nc2cn(Cc3ccccc3OC)nc12` (stereo not drawn) [Compound 16], the EC50 (hTLR8) was greater than 9980 nM and the EC50 (hTLR7) was 86.2 nM.
In the case of `CCCCC(CCO)Nc1nc(N)nc2cn(Cc3ccccc3OC)nc12` (stereo not drawn) [Compound 17], the EC50 (hTLR8) is reported as greater than 29900 nM and the EC50 (hTLR7) is reported as 398 nM.
Molecule `CCCCC(CCC)Nc1nc(N)nc2cn(Cc3ccccc3OC)nc12` (stereo not drawn) [Compound 18] has an EC50 (hTLR8) greater than 29900 nM and an EC50 (hTLR7) of 315 nM.
`CCCCC(CCC)Nc1nc(N)nc2cn(Cc3ccccc3OC)nc12` (stereo not drawn) [Compound 19] was tested, and the EC50 (hTLR8) was greater than 29900 nM and the EC50 (hTLR7) was 435 nM.
`COc1ccccc1Cn1cc2nc(N)nc(N3CCC(CO)C3)c2n1` (stereo not drawn) [Compound 24] gave an EC50 (hTLR8) greater than 29900 nM and an EC50 (hTLR7) of 2450 nM.
`CCCNc1nc(N)nc2cn(Cc3c(OC)cccc3OC)nc12` [Compound 26] was tested, and the EC50 (hTLR8) was 1890 nM and the EC50 (hTLR7) was 464 nM.
`COc1cccc(OC)c1Cn1cc2nc(N)nc(NC(C)C)c2n1` [Compound 27] was tested, and the EC50 (hTLR8) was 4380 nM and the EC50 (hTLR7) was 1120 nM.
`CCCCCNc1nc(N)nc2cn(Cc3c(OC)cccc3OC)nc12` [Compound 28] showed an EC50 (hTLR8) of 1010 nM and an EC50 (hTLR7) of 214 nM.
`CCC[C@H](CO)Nc1nc(N)nc2cn(Cc3ccccc3OC)nc12` [Compound 29] gave an EC50 (hTLR8) of 28200 nM and an EC50 (hTLR7) of 2770 nM.
With `CCCCNc1nc(N)nc2cn(CCc3ccccc3OC)nc12` [Compound 36] the EC50 (hTLR8) was greater than 29900 nM and the EC50 (hTLR7) was 3100 nM.
In the case of `CCCCNc1nc(N)nc2cn(Cc3ccccc3OC(C)C)nc12` [Compound 37], the EC50 (hTLR8) is reported as greater than 9980 nM and the EC50 (hTLR7) is reported as 1030 nM.
For `CCCCNc1nc(N)nc2cn(Cc3ccc(OC)cc3)nc12` [Compound 38], the EC50 (hTLR8) was 1690 nM and the EC50 (hTLR7) was 263 nM.
Molecule `CCCCNc1nc(N)nc2cn(Cc3c(C)cccc3OC)nc12` [Compound 39] has an EC50 (hTLR8) of 748 nM and an EC50 (hTLR7) of 239 nM.
`CCCCNc1nc(N)nc2cn(Cc3c(OCC)cccc3OCC)nc12` [Compound 40] showed an EC50 (hTLR8) of 813 nM and an EC50 (hTLR7) of 125 nM.
`CCCCNc1nc(N)nc2cn(Cc3c(F)cccc3F)nc12` [Compound 41] showed an EC50 (hTLR8) of 710 nM and an EC50 (hTLR7) of 68.6 nM.
`CCCCNc1nc(N)nc2cn(CCCCN)nc12` [Compound 42] gave an EC50 (hTLR8) of 2980 nM and an EC50 (hTLR7) greater than 29900 nM.
Work on `CNc1nc(N)nc2cn(Cc3c(OC)cccc3OC)nc12` [Compound 43] yielded an EC50 (hTLR8) greater than 9980 nM and an EC50 (hTLR7) of 1370 nM.
`CCNc1nc(N)nc2cn(Cc3c(OC)cccc3OC)nc12` [Compound 44] gave an EC50 (hTLR8) of 3930 nM and an EC50 (hTLR7) of 858 nM.
`COCCNc1nc(N)nc2cn(Cc3c(OC)cccc3OC)nc12` [Compound 46] gave an EC50 (hTLR8) of 1080 nM and an EC50 (hTLR7) of 353 nM.
`COc1cccc(OC)c1Cn1cc2nc(N)nc(NCCCO)c2n1` [Compound 47] was tested, and the EC50 (hTLR8) was greater than 29900 nM and the EC50 (hTLR7) was 8590 nM.
`COc1cccc(OC)c1Cn1cc2nc(N)nc(NCC(C)O)c2n1` (stereo not drawn) [Compound 48] showed an EC50 (hTLR8) greater than 29900 nM and an EC50 (hTLR7) of 7720 nM.
With `COc1cccc(OC)c1Cn1cc2nc(N)nc(NCC(C)O)c2n1` (stereo not drawn) [Compound 49] the EC50 (hTLR8) was greater than 29900 nM and the EC50 (hTLR7) was 7290 nM.
`COc1cccc(OC)c1Cn1cc2nc(N)nc(NCC(C)C)c2n1` [Compound 50] gave an EC50 (hTLR8) greater than 29900 nM and an EC50 (hTLR7) of 843 nM.
For `COc1cccc(OC)c1Cn1cc2nc(N)nc(NCCC(C)O)c2n1` (stereo not drawn) [Compound 51], the EC50 (hTLR8) was greater than 29900 nM and the EC50 (hTLR7) was 4730 nM.
For `COc1cccc(OC)c1Cn1cc2nc(N)nc(NCCC(C)O)c2n1` (stereo not drawn) [Compound 52], the EC50 (hTLR8) was greater than 29900 nM and the EC50 (hTLR7) was 2800 nM.
`COc1cccc(OC)c1Cn1cc2nc(N)nc(NCCC(C)C)c2n1` [Compound 53] gave an EC50 (hTLR8) greater than 29900 nM and an EC50 (hTLR7) of 858 nM.
With `CCCCNc1nc(N)nc2cn(Cc3c(OC)ccc(CNC(=O)C4CCC(CN5C(=O)C=CC5=O)CC4)c3OC)nc12` (stereo not drawn) [Compound 81] the EC50 (hTLR7) was greater than 29900 nM.

From US20230219962A1, “PYRAZOLO[4,3-d]PYRIMIDINE DERIVATIVES AND METHODS OF USE THEREOF FOR THE TREATMENT OF CELLULAR PROLIFERATIVE DISORDERS” (Merck Sharp & Dohme LLC, priority 2020, published 2023)
